Columns and labels:
Leukemia cells K562 = experiment: Intracellular photobleaching by confocal imaging under 405 nm laser; format: cell-based, human; settings: 1 μM sensitizer, 3 hrs incubation, 1-360 seconds
Experimental: Leukemia cells K562 were seeded at 800.000 cells/well in a 12 well tissue culture plate and treated with both free Ce6 (1 μM) and nanophotomedicine (NPM-3) prepared by using the same concentration of the sensitizer. Cells were incubated at 37° C. for 3 hrs before imaging using confocal microscope. Fluorescence imaging was carried out by exciting the sensitizer or nanophotomedicine taken-up by the cells using 405 nm laser. For recording the photobleaching at intracellular regions of the cancer cells, which has significant correlation to therapeutic effects, imaging is carried out after stipulated duration of laser irradiation from 1-360 seconds).

[1] = Photobleaching under laser irradiation, measured with a fluorescence spectrometer; format: physicochemical; settings: total dose 10 J cm^−2, nearly same initial fluorescence intensity
Experimental: Photobleaching characteristics of free Ce6 and nanophotomedicine (NPM-3) having nearly the same initial florescence intensity (that correlate with concentration of the drug) is compared using a fluorescence spectrometer. Laser irradiation of samples of both products was carried out under identical condition of a total dose of 10 J cm^−2. FIG. 4 illustrates the changes in the fluorescence emission characteristics of both the samples. […] In effect, this leads to long term stability of the drug within the construct even after extended duration of therapy.

chlorin e6 [free Ce6]
duration of laser irradiation until intracellular fluorescence is bleached out (Leukemia cells K562): 30 s
photodose at which the drug is inactivated by photobleaching [1]: 2.5 J cm^−2
